Measured values taken from patent US4338122A, “Biocidal 2-aryl-1,3-cyclopentanedione compounds and alkali metal and ammonium salts thereof” (Union Carbide Corporation, priority 1980, dated 1982).

Assays:
[1] = test system: two-spotted mite (Tetranychus urticae (Koch)), adults and nymphal stages; assay: Mite Foliage Spray Test (adult miticidal); type: in vivo; parameters: key to Miticidal, Adult (control rating): A: Excellent Control; B: Partial Control; No Control; conditions: Table I; mortality count four days after spraying
Method: (§1) Suspensions of the test compounds were prepared by dissolving one gram of compound in 50 milliliters of acetone in which had been dissolved 0.1 gram (10 percent of the weight of compound) of an alkylphenoxyethoxyethanol surfactant, as an emulsifying or dispersing agent. The resulting solution was mixed into 160 milliliters of water to give roughly 200 milliliters of a suspension containing the compound in finely divided form. The thus prepared stock suspension contained 0.5 percent by weight of compound. The test concentrations employed in the tests described herein below were obtained by diluting the stock suspension with water. The test procedures were as follows:
Adults and nymphal stages of the two-spotted mite (Tetranychus urticae (Koch)), reared on Tendergreen bean plants at 80°±5° F. and 50±5 percent relative humidity, were the test organisms. Infested leaves from a stock culture were placed on the primary leaves of two bean plants six to eight inches in height, growing in a two-and-a-half inch clay pot. 150-200 Mites, a sufficient number for testing, transferred from the excised leaves to the fresh plants in a period of twenty-four hours. Following the twenty-four hour transfer period, the excised leaves were removed from the infested plants. The test compounds were formulated by diluting the stock suspension with water to provide suspensions containing the desired amount of test compound per million parts of final formulation. The potted plants (one pot per compound) were placed on a revolving turntable and sprayed with 100-110 milliliters of test compound formulation by use of a DeVilbis spray gun set at 40 psi. air pressure. This application, which lasted 30 seconds, was sufficient to wet the plants to run-off. As a control, 100-110 milliliters of a water solution containing acetone and emulsifier in the same concentrations as the test compound formulation, but containing no test compound, were also sprayed on infested plants. The sprayed plants were held at 80°±5° F. and 50±5 percent relative humidity for four days, after which, a mortality count of motile forms was made on the leaves of the test plants. Any individual which was capable of locomotion upon prodding was considered living.
(§2) In these tests the pesticidal activity of the compounds against mites and mite eggs were rated as follows:
(§3) Tests were conducted in accordance with the procedures given at pages 32 to 37 supra. The results are expressed in the same manner as used in Table I, except with respect to miticidal activity. For mite adult and mite egg comparison purposes, results are given in parts per million (ppm) required for a 50 percent kill of mites or eggs, respectively.

[2] = test system: egg of the two-spotted mite (Tetranychus urticae (Koch)); assay: Mite Ovicide Test (egg); type: in vivo; parameters: key to Miticidal, Egg (control rating): A: Excellent Control; B: Partial Control; No Control; conditions: Table I; unhatched/hatched eggs four days after spraying
Method: as §1
The test organism was the egg of the two-spotted mite (Tetranychus urticae (Koch)), as obtained from adults reared on Tendergreen bean plants under controlled conditions of 80°±5° F. and 50±5 percent relative humidity. Heavily infested leaves from a stock culture were placed on the primary leaves of two bean plants six to eight inches in height growing in a two-and-a-half inch clay pot. Females were allowed to oviposit for a period of 48 hours and then the leaves of the infested plants were dipped in a solution containing 800 parts of tetraethyl pyrophosphate per million parts of water in order to destroy the reproductory forms and thus prevent further egg laying. […] The plants were allowed to dry thoroughly. The test compounds were formulated by diluting the stock suspension with water to give a suspension containing varying amounts of test compound per million parts of final formulation. The potted plants (one pot per compound) were placed on a revolving turntable and sprayed with 100-110 milliliters of test compound formulation by use of a DeVilbis spray gun set at 40 spig. air pressure. This application which lasted 30 seconds, was sufficient to wet the plants to run-off. As a control, 100-110 milliliters of a water solution containing acetone and emulsifier in the same concentrations as the test compound formulation, but containing no test compound, were also sprayed on plants infested with eggs. The sprayed plants were held at 80°±5° F. and 50±5 percent relative humidity for four days, after which a microscopic examination was made of unhatched (dead) and hatched (living) eggs.
as §2, §3

O=C1C(c2ccc(Cl)cc2Cl)C(=O)C2CC=CCC12 (centres unmarked) [Cl Cl H (CH2 CHCHCH2), 8-(2',4'-dichlorophenyl)bicyclo[4.3.0]non-3-en-7,9-dione]
Miticidal, Adult (control rating) [1]: A
Miticidal, Egg (control rating) [2]: A
